Test system: cells of the human embryonic stem cell line H1 differentiated to stage 6
Test: Phase contrast imaging of endocrine cluster formation in stage 6 cultures
Type: cell-based
Description: Cells of the human embryonic stem cell line H1 (hESC H1, passage 40) were seeded as single cells at 1×10^5 cells/cm^2 on MATRIGEL™ (1:30 dilution; BD Biosciences, NJ) coated dishes in mTeSR®1 media (StemCell Technologies, Vancouver, Canada) supplemented with 10 μM of Y27632. Forty-eight hours post seeding, cultures were washed in incomplete PBS (phosphate buffered saline without Mg or Ca). Cultures were differentiated into pancreatic endoderm/endocrine lineages as follows: • a) Stage 1 (Definitive Endoderm (DE)—3 days): Cells were cultured for one day in stage 1 media (see Example 1, above). Cells were then cultured for an additional day in MCDB-131 medium supplemented with 0.1% fatty acid-free BSA, 0.0012 g/ml sodium bicarbonate, 1× GlutaMax™, 4.5 mM D-Glucose, 100 ng/ml GDF8, and 0.1 μM MCX compound. Cells were then cultured for an additional day in MCDB-131 medium supplemented with 0.1% fatty acid-free BSA, 0.0012 g/ml sodium bicarbonate, 1× GlutaMax™, 4.5 mM D-Glucose, and 100 ng/ml GDF8, then • b) Stage 2 (Primitive gut tube—2 days): Cells were treated for two days with MCDB-131 medium supplemented with 0.1% fatty acid-free BSA; 0.0012 g/ml sodium bicarbonate; 1× GlutaMax™; 4.5 mM D-Glucose; 0.25 mM ascorbic acid (Sigma, Mo.) and 25 ng/ml FGF7 (R & D Systems, MN), then • c) Stage 3 (Foregut—2 days): Cells were treated with MCDB-131 medium supplemented with a 1:200 dilution of ITS-X (Invitrogen, Ca); 4.5 mM Glucose; 1× GlutaMax™; 0.0017 g/ml sodium bicarbonate; 2% fatty acid-free BSA; 0.25 μM SANT-1 (Sigma, Mo.); 10 ng/ml of Activin-A (R& D Systems, MN); 1 μM RA (Sigma, Mo.); 25 ng/ml FGF7; 0.25 mM ascorbic acid; 200 nM TPB (PKC activator; Catalog No. 565740; EMD Chemicals, Gibstown, N.J.); 10 μM forskolin (FSK, Sigma, Mo.), and 100 nM LDN (BMP receptor inhibitor; Catalog No. 04-0019; Stemgent, Calif.) for day 1. […]

SMILES: CCCCCCCCCCCCC/C=C/[C@@H](O)[C@@H](N)COP(=O)(O)O [S1P, sphingosine-1-phosphate]
- time at which endocrine clusters emerged after start of stage 6 (10 μM added for three days at stage 6, FIG. 6A, 6B): 3 days
- formation of clusters earlier than in control cultures (10 μM at stage 6, vs control cultures): about 7 days
- clustering of endocrine cells (S6 cultures, day 7, phase contrast, FIG. 4B): clear evidence of clustering of endocrine cells
- appearance of endocrine clusters (S6 cultures, day 10, phase contrast, FIG. 4C, 4D): clusters were separated from each other by a thin layer of pancreatic endoderm epithelium
